The numbers were not newly measured in patent publication US10238678B2, “Therapeutic methods” (GlaxoSmithKline LLC, priority 2011, dated 2019), which cites them from elsewhere.

Molecules are shown by their SMILES.

Consider `NC(=O)c1ncn([C@@H]2O[C@H](CO)[C@@H](O)[C@H]2O)n1` [Ribavirin], for which the “patients with significant hemolysis” value (currently recommended doses) was 10-20%. Further, the teratogenicity and embryotoxicity result (in vivo) is “teratogenic and embryotoxic”.
